According to ChEMBL document CHEMBL4229419, “Phosphorus-containing isothiocyanate-derived mercapturic acids as a useful alternative for parental isothiocyanates in experimental oncology” (Bioorg Med Chem Lett, 2018):
Activity calls are given as the source filed them. No cut-off for these calls is given here.

Assays:
[1] = Antiproliferative activity against human LoVo/DX cells after 72 hrs by SRB assay; type: functional, cell-based
LoVo [2] = assay: Antiproliferative activity against human LoVo cells after 72 hrs by SRB assay; type: functional, cell-based
MES-SA = assay: Antiproliferative activity against human MES-SA cells after 72 hrs by SRB assay; type: functional, cell-based
LoVo [3] = assay: Induction of apoptosis in human LoVo cells assessed as caspase-3 activation at 15 uM after 24 hrs by Ac-DEVD-ACC substrate based fluorescence assay relative to control; type: functional
HL60/MX2 = assay: Antiproliferative activity against human HL60/MX2 cells after 72 hrs by SRB assay; type: functional, cell-based; settings: HL60/MX2, 72 h
4T1 = assay: Antiproliferative activity against mouse 4T1 cells after 72 hrs by MTT assay; type: functional, cell-based; settings: 4T1, 72 h
BALB/3T3 = assay: Antiproliferative activity against mouse BALB/3T3 cells after 72 hrs by MTT assay; type: cell-based; settings: BALB/3T3, 72 h
HL-60 = assay: Antiproliferative activity against human HL60 cells after 72 hrs by SRB assay; type: functional, cell-based; settings: HL-60, 72 h
MES-SA/Dx5 = assay: Antiproliferative activity against human MES-SA/Dx5 cells after 72 hrs by SRB assay; type: functional, cell-based; settings: MES-SA/Dx5, 72 h
LoVo [4] = assay: Cell cycle arrest in human LoVo cells assessed as accumulation at G2/M phase at 15 uM after 24 hrs by propidium iodide staining based flow cytometry (reference value: 21%); type: functional
[5] = Resistance index, ratio of IC50 for antiproliferative activity against human HL60/MX2 cells to IC50 for antiproliferative activity against human HL60 cells; type: functional

| Structure (SMILES) | IC50 [1] | IC50 (LoVo [2]) | further results |
| --- | --- | --- | --- |
| CCOP(=O)(CCCCNC(=S)SC[C@H](NC(C)=O)C(=O)O)OCC | 10 µM | 3.3 µM | – |
| CC(=O)N[C@@H](CSC(=S)NCCP(=O)(Oc1ccccc1)Oc1ccccc1)C(=O)O | 9 µM | 3.5 µM | – |
| CCOC(OCC)P(=O)(CCCCN=C=S)OCC (configuration not stated) | 11.2 µM | 7 µM | – |
| CC(=O)N[C@@H](CSC(=S)NCCCP(=O)(OC(C)C)OC(C)C)C(=O)O | 8.5 µM | 3.1 µM | – |
| CCOP(=O)(CCCNC(=S)SC[C@H](NC(C)=O)C(=O)O)OCC | 2.5 µM | 2.2 µM | – |
| CCOP(=O)(CCCCCCNC(=S)SC[C@H](NC(C)=O)C(=O)O)c1ccccc1 (some centres not stated) | 2.2 µM | 1.5 µM | IC50 (MES-SA): 2.8 µM; fold change (FC) (LoVo [3]): 2.8; IC50 (HL60/MX2): 0.7 µM; IC50 (4T1): 1.9 µM; IC50 (BALB/3T3): 7.9 µM; IC50 (HL-60): 0.4 µM; IC50 (MES-SA/Dx5): 2.6 µM; Activity (LoVo [4]): 22% |
| CC(=O)N[C@@H](CSC(=S)NCCCCCCP(=O)(OCC(C)C)OCC(C)C)C(=O)O | 10.9 µM | 11.1 µM | – |
| COc1cccc2c1C(=O)c1c(O)c3c(c(O)c1C2=O)C[C@@](O)(C(=O)CO)C[C@@H]3O[C@H]1C[C@H](N)[C@H](O)[C@H](C)O1 [DOXORUBICIN] | – | – | IC50 (MES-SA): 0.16 µM; IC50 (MES-SA/Dx5): 16.2 µM |
| CC(=O)N[C@@H](CSC(=S)NCCP(=O)(c1ccccc1)c1ccccc1)C(=O)O | 7.7 µM | 2 µM | – |
| COP(=O)(CCCCCNC(=S)SC[C@H](NC(C)=O)C(=O)O)c1ccccc1 (some centres not stated) | 2.6 µM | 2.5 µM | – |
| CC(=O)N[C@@H](CSC(=S)NCCCCP(=O)(OC(C)C)OC(C)C)C(=O)O | 8.9 µM | 2.6 µM | – |
| CCOC(OCC)P(=O)(CCCCCNC(=S)SC[C@H](NC(C)=O)C(=O)O)OCC (some centres not stated) | 8.4 µM | 3 µM | – |
| CC(=O)N[C@@H](CSC(=S)NCCCP(=O)(Oc1ccccc1)Oc1ccccc1)C(=O)O | 7.6 µM | 2 µM | – |
| CCOP(=O)(CCCCCCNC(=S)SC[C@H](NC(C)=O)C(=O)O)OCC | 2.6 µM | 2.2 µM | – |
| CC(=O)N[C@@H](CSC(=S)NCCP(=O)(OCC(C)C)OCC(C)C)C(=O)O | 3.9 µM | 2.2 µM | – |
| CC(=O)N[C@@H](CSC(=S)NCCCCCP(=O)(OCC(C)C)OCC(C)C)C(=O)O | 8.8 µM | 2.6 µM | – |
| COP(=O)(CCCCCCN=C=S)c1ccccc1 (configuration not stated) | 2.3 µM | 1.8 µM | – |
| O=P(CCCCCCN=C=S)(c1ccccc1)c1ccccc1 | 3.1 µM | 2.2 µM | – |
| O=P(CCCCN=C=S)(c1ccccc1)c1ccccc1 | 2.2 µM | 2.2 µM | – |
| CC(=O)N[C@@H](CSC(=S)NCCCCCCP(=O)(c1ccccc1)c1ccccc1)C(=O)O | 8.1 µM | 2.1 µM | – |
| CC(=O)N[C@@H](CSC(=S)NCCCCCP(=O)(OC(C)C)OC(C)C)C(=O)O | 3.4 µM | 2.4 µM | – |
| CC(=O)N[C@@H](CSC(=S)NCCCCCCP(=O)(Oc1ccccc1)Oc1ccccc1)C(=O)O | 11.3 µM | 2.5 µM | – |
| CC(=O)N[C@@H](CSC(=S)NCCCP(=O)(c1ccccc1)c1ccccc1)C(=O)O | 5.6 µM | 4.6 µM | – |
| COP(=O)(CCCCCCNC(=S)SC[C@H](NC(C)=O)C(=O)O)c1ccccc1 (some centres not stated) | 2.8 µM | 2.1 µM | – |
| CC(=O)N[C@@H](CSC(=S)NCCCCP(=O)(c1ccccc1)c1ccccc1)C(=O)O | 8.1 µM | 4.4 µM | – |

| Structure (SMILES) | IC50 [1] | IC50 (LoVo [2]) | further results |
| --- | --- | --- | --- |
| CC(=O)N[C@@H](CSC(=S)NCCP(=O)(OC(C)C)OC(C)C)C(=O)O | 8.1 µM | 5 µM | – |
| CC(=O)N[C@@H](CSC(=S)NCc1ccccc1)C(=O)O | 15.4 µM | 11.5 µM | fold change (FC) (LoVo [3]): >10; Activity (LoVo [4]): 49% |
| CC(=O)N[C@@H](CSC(=S)NCCCCCP(=O)(Oc1ccccc1)Oc1ccccc1)C(=O)O | 8 µM | 1.9 µM | – |
| COP(=O)(CCCCN=C=S)c1ccccc1 (configuration not stated) | 2.3 µM | 3.1 µM | – |
| CCOP(=O)(CCNC(=S)SC[C@H](NC(C)=O)C(=O)O)OCC | 8 µM | 2.2 µM | – |
| CCOP(=O)(CCCCNC(=S)SC[C@H](NC(C)=O)C(=O)O)c1ccccc1 (some centres not stated) | 3.5 µM | 2.5 µM | – |
| CCOP(=O)(CCCCCCN=C=S)c1ccccc1 (configuration not stated) | 4 µM | 2.3 µM | – |
| CC(=O)N[C@@H](CSC(=S)NCCCC[S+](C)[O-])C(=O)O (some centres not stated) | 14 µM | 20.5 µM | Activity (LoVo [3]): Active |
| CCOP(=O)(CCCCCNC(=S)SC[C@H](NC(C)=O)C(=O)O)OCC | 4 µM | 2.2 µM | – |
| CCOP(=O)(CCCCN=C=S)c1ccccc1 (configuration not stated) | 4.1 µM | 2.5 µM | – |
| CCCCNC(=S)SC[C@H](NC(C)=O)C(=O)O | 224 µM | 201 µM | – |
| CCOP(=O)(CCCNC(=S)SC[C@H](NC(C)=O)C(=O)O)c1ccccc1 (some centres not stated) | 3.4 µM | 2.2 µM | – |
| CCOC(OCC)P(=O)(CCCCCCNC(=S)SC[C@H](NC(C)=O)C(=O)O)OCC (some centres not stated) | 10.4 µM | 3.1 µM | – |
| CCOC(OCC)P(=O)(CCCCCCN=C=S)OCC (configuration not stated) | 10.6 µM | 5.1 µM | – |
| CC(=O)N[C@@H](CSC(=S)NCCCCP(=O)(Oc1ccccc1)Oc1ccccc1)C(=O)O | 7.9 µM | 2.2 µM | – |
| CC(=O)N[C@@H](CSC(=S)NCCCP(=O)(OCC(C)C)OCC(C)C)C(=O)O | 17.9 µM | 19.3 µM | – |
| COP(=O)(CCCCNC(=S)SC[C@H](NC(C)=O)C(=O)O)c1ccccc1 (some centres not stated) | 2.9 µM | 2.7 µM | – |
| CCOP(=O)(CCCCCNC(=S)SC[C@H](NC(C)=O)C(=O)O)c1ccccc1 (some centres not stated) | 3.3 µM | 2 µM | – |
| CCOC(OCC)P(=O)(CCCCNC(=S)SC[C@H](NC(C)=O)C(=O)O)OCC (some centres not stated) | 11.3 µM | 6.4 µM | – |
| CC(=O)N[C@@H](CSC(=S)NCCCCCP(=O)(c1ccccc1)c1ccccc1)C(=O)O | 4.3 µM | 1.5 µM | – |
| CC(=O)N[C@@H](CSC(=S)NCCCCCCP(=O)(OC(C)C)OC(C)C)C(=O)O | 3.4 µM | 1.8 µM | IC50 (MES-SA): 9.9 µM; fold change (FC) (LoVo [3]): 2.2; IC50 (HL60/MX2): 3 µM; Ratio IC50 [5]: 5; IC50 (4T1): 2.5 µM; IC50 (BALB/3T3): 10.9 µM; IC50 (HL-60): 0.6 µM; IC50 (MES-SA/Dx5): 10.3 µM; Activity (LoVo [4]): 24% |
| CC(=O)N[C@@H](CSC(=S)NCCCCP(=O)(OCC(C)C)OCC(C)C)C(=O)O | 9 µM | 3 µM | – |
| O=C1c2c(O)ccc(O)c2C(=O)c2c(NCCNCCO)ccc(NCCNCCO)c21 [MITOXANTRONE] | – | – | Ratio IC50 [5]: 37 |
| O=P(CCN=C=S)(c1ccccc1)c1ccccc1 | 2.2 µM | 2 µM | – |
